Data published in patent US8962576B2, “Compositions and method for improving endothelial function and cardiovascular health” (Natreon, Inc., priority 2012, dated 2015).
“And” between values parts separate entries of the source, which are not always exact repeats. Equal values may be shown once.

Columns and labels:
Type 2 Diabetic Subjects [1] = assay: Lipid profile, study (c); format: in vivo, human; conditions: CAPROS 250 mg twice daily, Atorvastatin 10 mg daily, n = 20
Text: After screening, all the eligible subjects were randomized to receive either one of the four treatments for a duration of 12 weeks, as follows.
All the subjects had undergone complete physical examination, safety lab evaluations at baseline and at the end of the treatment. Samples were collected after an overnight fast of 12 hrs after the last dose of medication for determination of haemoglobin, HbA1c, blood urea and serum creatinine, liver function test, and lipid profile (Total cholesterol (TC), High density lipoprotein cholesterol (HDL-C), low density lipoprotein cholesterol (LDL-C)), and results obtained using appropriate standard techniques.

Type 2 Diabetic Subjects [2] = assay: Endothelial function: reflection index (RI), salbutamol challenge test, study (a); format: in vivo, human; conditions: Sensoril or Capros 250 mg twice daily, Atorvastatin 10 mg at night; for Abs Change in RI(%) Post Salbutamol challenge: n = 10
Text: Procedure for Assessment of Endothelial Function by Determination of Reflection Index (RI).
A salbutamol (albuterol) challenge test employing digital volume plethysmography was used to assess endothelial function as reported by Chowienczyk et al., “Photoplethysmographic assessment of pulse wave reflection: blunted response to endothelium dependant beta 2-adrenergic vasodilation in type 2 diabetes mellitus,” J. Am. Coll. Cardiol. (1999 December) 34(7):2007-14; and Naidu, et al., “Comparison of two β2 adrenoceptor agonists by different routes of administration to assess human endothelial function,” Indian J. Pharmacol. (2007) 39:168-9. The patients were examined in supine position after 5 minutes of rest. A digital volume pulse (DVP) was obtained using a photo plethysmograph (Pulse Trace PCA2, PT200, Micro Medical, Gallingham, Kent, UK) transmitting infrared light at 940 nm, placed on the index finger of the right hand. The signal from the plethysmograph was digitized using a 12 bit analogue to digital converter with a sampling frequency of 100 Hz. DVP waveforms were recorded over 20 second period and the height of the late systolic/early diastolic portion of the DVP was expressed as a percentage of the amplitude of the DVP to yield the reflection index (RI), per the procedure described in detail by Millasseau et al., “Determination of age related increases in large artery stiffness by digital pulse contour analysis,” Clinical Science (2002) 103: 371-377. Three DVP recordings were taken, and measurements of reflection index (RI) were calculated and the mean value was determined. Patients were then administered 400 μg of salbutamol by inhalation. After 15 minutes three measurements of RI were obtained again and the difference in mean RI before and after administration of salbutamol was used for assessing endothelial function. A change of ≦6% in RI post-salbutamol was considered as endothelial dysfunction.

## CC(C)c1c(C(=O)Nc2ccccc2)c(-c2ccccc2)c(-c2ccc(F)cc2)n1CC[C@@H](O)C[C@@H](O)CC(=O)O [Atorvastatin]
Type 2 Diabetic Subjects [1]; 12 weeks
  Absolute change in HDL-C: 7.52 ± 7.00 mg/dL
  Absolute change in LDL-C: -47.48 ± 24.19 mg/dL
  Absolute change in Total Cholesterol: -48.11 ± 36.87 mg/dL
  Absolute change in Triglycerides: -48.54 ± 50.09 mg/dL
  Absolute change in VLDL-C: -5.30 ± 4.70 mg/dL
  Mean percentage change in HDL-C: 21.16 ± 20.49%
  Mean percentage change in LDL-C: −35.00 ± 14.34%
  Mean percentage change in Total Cholesterol: −24.68 ± 14.38%
  Mean percentage change in Triglycerides: −25.02 ± 25.34%
  Mean percentage change in VLDL-C: −18.24 ± 17.10%
Type 2 Diabetic Subjects [1]; Post TT, 12 weeks
  HDL-C: 47.95 ± 5.34 mg/dL
  LDL-C: 78.50 ± 16.71 mg/dL
  Total Cholesterol: 135.6 ± 26.94 mg/dL
  Triglycerides: 106.5 ± 30.79 mg/dL
  VLDL-C: 19.90 ± 3.64 mg/dL
Type 2 Diabetic Subjects [1]; Pre TT
  HDL-C: 40.44 ± 6.76 mg/dL
  LDL-C: 126.00 ± 34.90 mg/dL
  Total Cholesterol: 183.7 ± 37.41 mg/dL
  Triglycerides: 155.0 ± 56.51 mg/dL
  VLDL-C: 25.20 ± 6.57 mg/dL
Type 2 Diabetic Subjects [2]; Post treatment, 12 weeks
  Abs Change in RI(%) Post Salbutamol challenge: −11.04% and −11.04 ± 5.48 %
Type 2 Diabetic Subjects [2]; Pre treatment
  Abs Change in RI(%) Post Salbutamol challenge: −2.45% and −2.45 ± 0.64%
Type 2 Diabetic Subjects [2]; after 12 weeks of treatment
  Mean % change in Abs Change in RI (%) Post Salbutamol challenge: 336.1 ± 235.2%
